In patent US20260166162A1, “CARBON CHAIN SUBSTANCE FOR REGULATING TRANSMEMBRANE TRANSPORT AND FLUIDITY OF CELL MEMBRANES, AND PREPARATION AND USE THEREOF” (priority 2022, published 2026):

Test system: Epithelial cells
Assay: Interaction of GFP-labelled complexes with cell membrane of epithelial cells (Example II-52, Table II-30)
Type: cell-based
Conditions: GFP-labelled complex, epithelial cells pretreated 4 hours, n=3
Description: The fatty acids were combined with water-soluble small molecules to form a complex, which were labeled with GFP fluorescence to detect cell membrane fluorescence. […] After the cells were stably adhered, the water-soluble fatty acid complexes in the following table were added to the cell culture medium. […] The medium with the drug was pipetted and replaced with normal DMEM medium. […] The green fluorescence intensity was analyzed by imageJ (see Table II-30, n=3).

| Structure (SMILES) | Mean fluorescence intensity (0 Hours after medium replaced) | Mean fluorescence intensity (2 Hours after medium replaced) | Mean fluorescence intensity (4 Hours after medium replaced) | Mean fluorescence intensity (8 Hours after medium replaced) | Mean fluorescence intensity (12 Hours after medium replaced) | Mean fluorescence intensity (24 Hours after medium replaced) |
| --- | --- | --- | --- | --- | --- | --- |
| CC/C=C\C/C=C\C/C=C\C/C=C\C/C=C\C/C=C\CCC(=O)OCC(O)C1OC(=O)C(O)=C1O (stereo not drawn) [Vc-DHA] | 126.3 ± 7.4 | 115.4 ± 5.2 | 109.8 ± 4.9 | 52.0 ± 6.1 | 42.0 ± 3.4 | 37.9 ± 4.6 |
| CC=CC(=O)NCCCCC(N)C(=O)O (stereo not drawn) [Lys-crotonic acid] | 119.3 ± 3.4 | 120.0 ± 6.6 | 98.3 ± 5.5 | 55.9 ± 6.7 | 46.9 ± 3.6 | 40.4 ± 5.3 |
| NC(COC(=O)CCCCCCCCCCCCCCC(=O)O)C(=O)O (stereo not drawn) [Ser-hexadecanedioic acid] | 119.6 ± 9.4 | 116.2 ± 5.1 | 93.4 ± 5.3 | 63.9 ± 4.1 | 46.0 ± 3.6 | 37.6 ± 6.7 |
| CCCCCCCCC/C=C/C(=O)OCC1OC(O)C(O)C(O)C1O (stereo not drawn) [Glucose-t-2-dodecenoic acid] | 129.3 ± 0.6 | 122.0 ± 6.6 | 109.6 ± 5.6 | 63.4 ± 6.0 | 45.7 ± 4.6 | 38.5 ± 8.2 |
| NC(CCCCNC(=O)CCCCCCCCCCCC(=O)O)C(=O)O (stereo not drawn) [Lys-tridecanedioic acid] | 134.4 ± 5.7 | 125.0 ± 6.9 | 113.9 ± 4.2 | 64.3 ± 1.6 | 48.4 ± 6.8 | 42.0 ± 2.6 |
| CCCCC/C=C/C(=O)OCC1OC(O)C(O)C(O)C1O (stereo not drawn) [Glucose-t-2-octenoic acid] | 99.4 ± 3.6 | 92.5 ± 4.0 | 61.4 ± 4.2 | 42.3 ± 3.3 | 36.4 ± 4.3 | 32.4 ± 6.6 |
| NC(COC(=O)CCCCCCCCCCC(=O)O)C(=O)O (stereo not drawn) [Ser-dodecanedioic acid] | 127.3 ± 3.5 | 126.3 ± 5.2 | 118.3 ± 7.3 | 69.3 ± 8.4 | 59.3 ± 5.5 | 45.3 ± 1.6 |
| C=CCCCCCCCCC(=O)NCCCCC(N)C(=O)O (stereo not drawn) [Lys-10-undecenoic acid] | 135.6 ± 2.4 | 130.8 ± 6.7 | 118.2 ± 9.0 | 89.5 ± 4.4 | 58.6 ± 5.7 | 49.6 ± 0.5 |
| CCCCCCC=CCCCCCCCC(=O)OCC1OC(O)C(O)C(O)C1O (stereo not drawn) [Glucose-c-9-hexadecenoic acid] | 126.3 ± 2.5 | 113.5 ± 8.2 | 105.5 ± 6.8 | 87.5 ± 6.8 | 64.3 ± 5.1 | 43.5 ± 5.0 |
| CCCC(=O)OC(C)C(N)C(=O)O (stereo not drawn) [Thr-n-butyric acid] | 126.4 ± 4.6 | 121.4 ± 4.6 | 115.0 ± 0.4 | 60.41 ± 3.4 | 34.91 ± 5.6 | 30.67 ± 4.5 |
| CC(OC(=O)CCCCCCC(=O)O)C(N)C(=O)O (stereo not drawn) [Thr-octanedioic acid] | 125.3 ± 4.2 | 122.4 ± 7.5 | 115.4 ± 6.8 | 55.4 ± 7.8 | 45.0 ± 6.3 | 35.3 ± 5.9 |
| NC(COC(=O)CCCCCCCCCCCCCCCCCCCCC(=O)O)C(=O)O (stereo not drawn) [Ser-docosanedioic acid] | 114.5 ± 3.3 | 101.4 ± 6.9 | 95.4 ± 5.5 | 74.4 ± 2.4 | 34.5 ± 5.5 | 20.4 ± 4.4 |
